Read-outs that look alike come from different tables or passages of the source.
Columns and labels:
Type in all cases: cell-based
[1] = system: multi-drug resistant (Dd2) strain of Plasmodium falciparum; assay: In vitro antimalarial MSF (SyBrGreen I fluorescence) assay, Dd2 strain
Description: (§1) Four different laboratory strains of P. falciparum were cultured in human erythrocytes by standard methods under a low oxygen atmosphere (5% O2, 5% CO2, 90% N2) in an environmental chamber. The culture medium was RPMI 1640, supplemented with 25 mM Hepes buffer, 25 mg/liter gentamicin sulfate, 45 mg/liter hypoxanthine, 10 mM glucose, 2 mM glutamine, and 0.5% Albumax II (complete medium). The parasites were maintained in fresh human erythrocytes suspended at a 2% hematocrit in complete medium at 37° C. Stock cultures were sub-passaged every 3 to 4 days by transfer of infected red cells to a flask containing complete medium and uninfected erythrocytes.
(§2) In vitro antimalarial activity of the test compounds was assessed by a fluorescence-based method described previously (Smilkstein et al., 2004, Antimicrobial Agents and Chemotherapy, Vol. 48, pgs. 1803-1806) (reference format?). The studies were set up in triplicate in 96 well plates with two-fold dilutions of each test compound across the plate in a total volume of 100 μl and at a final red blood cell concentration of 2% (v/v). Stock solutions of each drug were prepared by dissolving in DMSO at 10 mM. […] In every case, an additional determination was performed to ensure bracketing of the IC50 value by at least an order of magnitude.
(§3) Automated pipeting and dilution was carried out by a programmable Precision 2000 robotic station (Bio-Tek, Winooski, Vt.). An initial parasitemia of 0.2% was attained by addition of normal uninfected red cells to a stock culture of asynchronous parasite infected red cells (PRBC). The plates were incubated for 72 hrs at 37° C. in an atmosphere of 5% CO2, 5% O2, and 90% N2. After this period, the SyBrGreen I dye-detergent mixture (100 μl) was added and the plates were incubated at room temperature for an hour in the dark and then placed in a 96-well fluorescence plate reader (Gemini-EM, […]) for analysis with excitation and emission wavelength bands centered at 497 and 520 nm, respectively.

[2] = system: drug susceptible (D6) strain of Plasmodium falciparum; assay: In vitro antimalarial MSF (SyBrGreen I fluorescence) assay, D6 strain
Description: as §1, §2, §3

[3] = system: Murine splenic lymphocytes; assay: MSLCs-concanavalin A induced proliferation (blastogenesis) cytotoxicity assay, Alamar Blue fluorescence; conditions: Table 2, 24-hr MSLCs-concanavalin A induced proliferation
Description: *Data are the average of at least 3 independent experiments, each performed in triplicate with the aid of a Precision 2000 robotic pipeting station. IC50 values were determined by the MSF assay. […] MSLCs=Murine splenic lymphocytes. Cytotoxicity was determined using a 24-hr MSLCs-concanavalin A induced proliferation assay using the Alamar Blue fluorescence method. IVTI=in vitro therapeutic index calculated from the ratio of IC50 values based on the cytotoxicity observed in the blastogenesis assay and the antimalarial potency against the D6 strain of P. falciparum. NT=not tested.
*Data are the average of at least 3 independent experiments, each performed in triplicate with the aid of a Precision 2000 robotic pipeting station. IC50 values were determined by the MSF assay (Smilkstein et al., AAC, 2004). MSLCs=Murine splenic lymphocytes. Cytotoxicity was determined using a 48-hr MSLCs-concanavalin A induced proliferation assay using the Alamar Blue fluorescence method. IVTI=in vitro therapeutic index calculated from the ratio of IC50 values of the cytotoxicity observed in the blastogenesis assay and antimalarial potency against the D6 strain of P. falciparum. NA=not applicable; ND=not determined.

[4] = system: Murine splenic lymphocytes; assay: as above; conditions: Table 3, 48-hr MSLCs-concanavalin A induced proliferation
[5] = Table 2, 72 hrs, average of at least 3 experiments
[6] = Table 2, MSF assay, 72 hrs, average of at least 3 experiments, read-out: D6 IC50
[7] = Plasmodium falciparum, D6, Table 4, MSF assay, read-out: D6 IC50
[8] = Table 3, MSF assay, read-out: D6 IC50
[9] = Plasmodium falciparum, D6, strain not given, read-out: IC50 value of parent compound used for comparison
[10] = Plasmodium falciparum, D6, Table 3, MSF assay, read-out: D6 IC50
[11] = Mus musculus, Splenic lymphocyte

IC50 [1, 5] [nM] | IC50 [2, 6] [nM] | SMILES | IC50 [3] [nM] | further results
0.5 | 0.3 | O=c1c2ccc(Cl)cc2[nH]c2cc(OCCCCC(F)(F)F)ccc12 [compound 18] | > 25000 | 
3500 | 4000 | Cn1c2cc(Cl)ccc2c(=O)c2ccc(OCCCCC(F)(F)F)cc21 [compound 31] | > 25000 | 
152 | 70 | O=c1c2ccc(Cl)cc2[nH]c2ccc(OCCCCCBr)cc12 [compound 10] | 12000 | 
15 | 10 | O=c1c2ccc(Cl)cc2[nH]c2ccc(OCCCCCC(F)(F)F)cc12 [compound 22] | > 25000 | 
18000 | 16000 | O=c1c2ccc(Cl)cc2oc2cc(OCCCCC(F)(F)F)ccc12 [compound 19] | > 25000 | 
1.2 | 1 | O=c1c2ccc(Cl)cc2[nH]c2cc(OCCCC(F)(F)F)ccc12 [compound 17] | > 25000 | 
13 | 12 | O=c1c2ccc(Cl)cc2[nH]c2cc(OCCCCCCl)ccc12 [compound 16] | > 25000 | 
192 | 76 | COc1ccc2c(=O)c3ccc(Cl)cc3[nH]c2c1 [compound 13] | > 25000 | 
10 | 2.9 | Nc1c2ccc(Cl)cc2nc2cc(OCCCCCC(F)(F)F)ccc12 [compound 32] | 250 | 
42 | 18 | COc1ccc2nc3cc(Cl)ccc3c(N)c2c1 [compound 9] | 450 | 
65 | 45 | COc1ccc2[nH]c3cc(Cl)ccc3c(=O)c2c1 [compound 7] | > 25000 | 
9200 | 2200 | O=c1c2ccc(O)cc2[nH]c2cc(Cl)ccc12 [compound 14] | 14000 | 
260 | 190 | O=c1c2ccc(Cl)cc2[nH]c2ccc(O)cc12 [compound 8] | 24000 | 

Further lines, the molecule ahead of its results:

SMILES | IC50 [1, 5] [nM] | IC50 [2, 6] [nM] | IC50 [3] [nM] | further results
O=c1c2ccc(Cl)cc2[nH]c2cc(OCCCCC(F)(F)C(F)(F)F)ccc12 [compound 23] | 0.02 | 0.02 | > 25000 | 
O=c1c2ccc(O)cc2oc2cc(O)ccc12 [compound 52] |  |  |  | IC50 ([2]; Plasmodium falciparum, D6, read-out: D6 IC50, nM): > 100000 nM
O=c1c2ccc(O)cc2oc2cc(OCCCCCC(F)(F)F)ccc12 [compound 53] |  |  |  | IC50 [2, 7]: 780 nM
O=c1c2ccc(O)cc2oc2cc(O)ccc12 [No. 52, 3,6-dihydroxyxanthone, reference compound] |  |  |  | IC50 ([2]; Plasmodium falciparum, D6, read-out: IC50 value of parent compound used for comparison): > 100000 nM
CCOC(=O)c1c[nH]c2cc(OCCCCCC(F)(F)F)ccc2c1=O [compound 46] |  |  |  | IC50 ([1]; Table 3): 1.2 nM; IC50 [2, 8]: 1.2 nM; IC50 [4]: > 25000 nM
COc1ccc2c(=O)c(CCCCCCCCCCC(F)(F)F)c(C)[nH]c2c1 [compound 45] |  |  |  | IC50 ([1]; Table 3): 0.36 nM; IC50 [2, 8]: 0.2 nM; IC50 [4]: > 25000 nM
C=CC1CN2CCC1CC2C(O)c1ccnc2ccc(OC)cc12 (centres unmarked) [compound 37] | 68 | 11 | 23000 | 
O=C1c2ccc(OCCCCCC(F)(F)F)cc2C(=O)c2ccc(O)cc21 [compound 15] | 54 | 27 | > 25000 | 
O=c1c2ccccc2[nH]c2cc(O)ccc12 [compound 6] | 504 | 2000 | > 25000 | 
O=C1C=C(OCCCCC(F)(F)F)C(=O)c2ccccc21 [compound 35] | 35 | 32 | 14000 | 
O=c1c2ccc(Cl)cc2[nH]c2cc(OCCCCC(F)(C(F)(F)F)C(F)(F)F)ccc12 [compound 24] |  | 0.0015 | > 25000 | 
O=c1c2ccc(Cl)cc2[nH]c2cc(OCCCCCCCCO)ccc12 [compound 29] | 3.5 | 2.2 | > 25000 | 
O=c1c2ccc(O)cc2oc2cc(OCCCCCC(F)(F)F)ccc12 [compound 11] | 40 | 46 | > 25000 | 
COc1ccc2c(=O)cc(C)[nH]c2c1 [No. 43, 2-methyl-7-methoxy-4-(1H)-quinolone] |  |  |  | IC50 [2, 9]: > 2500 nM
O=C1c2ccccc2Cc2ccc(OCCCCCC(F)(F)F)cc21 [compound 55] |  |  |  | IC50 [2, 7]: 510 nM
O=c1c2ccc(O)cc2[nH]c2cc(Cl)ccc12 [No. 14, 3-hydroxy-6-chloroacridone] |  |  |  | IC50 [2, 9]: > 2200 nM
O=c1c2ccccc2[nH]c2ccc(O)cc12 [compound 5] | 4400 | 9000 | > 25000 | 
Nc1ccc2c(=O)c3ccc(OCCCCCC(F)(F)F)cc3[nH]c2c1 [compound 34] |  |  | > 25000 | 
O=C1C=C(O)C(=O)c2ccccc21 [No. 47, 2-hydroxy-1,4-naphthoquinone, reference compound] |  |  |  | IC50 [2, 9]: ~1800 nM
O=c1c2ccccc2[nH]c2c(OCCCCCC(F)(F)F)cccc12 [compound 27] | 515 | 446 | > 25000 | 

SMILES | IC50 [1, 5] [nM] | IC50 [2, 6] [nM] | IC50 [3] [nM] | further results
O=c1c2ccc(Cl)cc2[nH]c2cc(OCCCCCC(F)(F)F)ccc12 [compound 21] | 0.07 | 0.06 | > 25000 | 
O=C1C=C(CCCCCC(F)(F)F)C(=O)c2ccccc21 [compound 49] |  |  |  | IC50 [2, 7]: 823 nM
O=c1c2ccc(Cl)cc2[nH]c2cc(OCCCCCCCC(F)(F)F)ccc12 [compound 28] | 0.17 | 0.16 | > 25000 | 
O=C1C=C(OCCCCC(F)(F)F)C(=O)c2ccccc21 [compound 48] |  |  |  | IC50 [2, 7]: 51.1 nM
O=C1c2ccccc2Cc2ccc(O)cc21 [compound 54] |  |  |  | IC50 [2, 7]: 8300 nM
COc1ccc2c(=O)c(C(=O)O)c[nH]c2c1 [compound 42] |  |  |  | IC50 [2, 10]: > 2500 nM; IC50 [4, 11]: > 25000 nM
O=C1C=C(O)C(=O)c2ccccc21 [compound 47] |  |  |  | IC50 [2, 7]: 1800 nM
CC1CCC2C(C)C(=O)OC3OC4(C)CCC1C32OO4 (centres unmarked) [compound 39] | 0.9 | 0.65 | > 25000 | 
OC(c1cc(C(F)(F)F)nc2c(C(F)(F)F)cccc12)C1CCCCN1 (racemic) [compound 38] | 8.8 | 5.9 | 4800 | 
O=C1C=C(OCCCCCC(F)(F)F)C(=O)c2ccccc21 [compound 12] | 95 | 67 | 5600 | 
O=c1c2ccccc2[nH]c2cc(OCCCCC(F)(F)F)ccc12 [compound 20] | 0.3 | 0.5 | > 25000 | 
CCOC(=O)c1c[nH]c2cc(OC)ccc2c1=O [compound 41] |  |  |  | IC50 [2, 8]: 440 nM; IC50 [4]: > 25000 nM
O=c1c2ccccc2[nH]c2cc(OCCCCCC(F)(F)F)ccc12 [compound 26] | 0.015 | 0.43 | > 25000 | 
O=c1c2ccc(Cl)cc2[nH]c2cc(OCCCCCCCCCCC(F)(F)F)ccc12 [compound 30] | 0.025 | 0.023 | > 25000 | 
COc1ccc2c(=O)c(CCCCCC(F)(F)F)c(C)[nH]c2c1 [compound 44] |  |  |  | IC50 ([1]; Plasmodium falciparum, DD2, Table 3): 12.8 nM; IC50 [2, 10]: 10.2 nM; IC50 [4, 11]: > 25000 nM
O=c1c2ccccc2[nH]c2ccc(OCCCCCC(F)(F)F)cc12 [compound 25] | 49 | 36 | > 25000 | 
COc1ccc2c(=O)cc[nH]c2c1 [compound 40] |  |  |  | IC50 [2, 10]: > 2500 nM; IC50 [4, 11]: > 25000 nM
CCN(CC)CCCC(C)Nc1ccnc2cc(Cl)ccc12 (racemic) [compound 36] | 102 | 7.8 | 3900 | 
O=c1c2ccc(OCCCCCC(F)(F)F)cc2[nH]c2cc([N+](=O)[O-])ccc12 [compound 33] | 5.8 | 3.2 | > 25000 | 

— US7829578B1, “Aromatic ketones and uses thereof” (Oregon Health & Science University, priority 2005, dated 2010)
